Reference: publication PMC12090182, “Repurposing of the RIPK1-Selective Benzo[1,4]oxazepin-4-one Scaffold for the Development of a Type III LIMK1/2 Inhibitor” (ACS Chemical Biology, 2025)

Columns and labels:
Format in all cases: cell-based
Details in all cases: HEK-293T; 1 μM inhibitor, HEK293T cells
TBK1 = TBK1 (Homo sapiens, UniProt Q9UHD2)
Description: (§1) For plate preparation, a transfection mix was prepared in white 384-well small-volume plates (Greiner, cat. no. 784075) by preplating 3 μL of 20 μL/mL FuGene HD (Promega, cat. no. E2311), diluted in an Opti-MEM medium (Gibco, cat. no. 11058-021). One μL of DNA from both DNA vector source plates of the K192 kit was added using an Echo 550 acoustic dispenser (Beckman Coulter). The mix was incubated for 30 min, and 6 μL of HEK293T cells in an Opti-MEM medium was added. The proteins were allowed to express for 20 h. After expression, Tracer K10 was added using the concentrations recommended in the K192 technical manual and a 1 μM inhibitor was added to every second well. […] Five μL of substrate solution was added to every well, and filtered luminescence was measured on a PHERAstar plate reader (BMG Labtech) equipped with a luminescence filter pair (450 nm BP filter (donor) and a 610 nm LP filter (acceptor)). For every kinase, occupancy was calculated and plotted using GraphPad Prism 10 (Table S5).

NEK11 = NEK11 (Homo sapiens, UniProt Q8NG66)
Description: as §1

LCK = LCK (Homo sapiens, UniProt P06239)
Description: as §1

STK35 = STK35 (Homo sapiens, UniProt Q8TDR2)
Description: as §1

IRAK4 = IRAK4 (Homo sapiens, UniProt Q9NWZ3)
Description: as §1

TXK = TXK (Homo sapiens, UniProt P42681)
Description: as §1

JNK3 = JNK3 (Homo sapiens, UniProt P53779)
Description: as §1

TYRO3 = TYRO3 (Homo sapiens, UniProt Q06418)
Description: as §1

ERN2 = ERN2 (Homo sapiens, UniProt Q76MJ5)
Description: as §1

MAP4K2 = MAP4K2 (Homo sapiens, UniProt Q12851)
Description: as §1

CDKL3 = CDKL3 (Homo sapiens, UniProt Q8IVW4)
Description: as §1

SRMS = SRMS (Homo sapiens, UniProt Q9H3Y6)
Description: as §1

BTK = molecular target: T1, BTK (Homo sapiens, UniProt Q06187)
T1 construct: full-length LIMK1/2, RIPK1, BTK, and LRRK2 cloned in a frame in a NanoLuc-vector (Promega); host or cells: HEK293T
Description: as §1

TEK = TEK (Homo sapiens, UniProt Q02763)
Description: as §1

MAPK14 = MAPK14 (Homo sapiens, UniProt Q16539)
Description: as §1

CDK3 = CDK3 (Homo sapiens, UniProt Q00526)
Description: as §1

MAP3K21 = MAP3K21 (Homo sapiens, UniProt Q5TCX8)
Description: as §1

MYLK2 = MYLK2 (Homo sapiens, UniProt Q9H1R3)
Description: as §1

BRSK2 = BRSK2 (Homo sapiens, UniProt Q8IWQ3)
Description: as §1

SLK = SLK (Homo sapiens, UniProt Q9H2G2)
Description: as §1

CDKL2 = CDKL2 (Homo sapiens, UniProt Q92772)
Description: as §1

FGFR2 = FGFR2 (Homo sapiens, UniProt P21802)
Description: as §1

FYN = FYN (Homo sapiens, UniProt P06241)
Description: as §1

LATS1 = LATS1 (Homo sapiens, UniProt O95835)
Description: as §1

FGFR3 = FGFR3 (Homo sapiens, UniProt P22607)
Description: as §1

MAP3K9 = MAP3K9 (Homo sapiens, UniProt P80192)
Description: as §1

RPS6KA1 = RPS6KA1 (Homo sapiens, UniProt Q15418)
Description: as §1

T1 sequence (Q06187 whole entry): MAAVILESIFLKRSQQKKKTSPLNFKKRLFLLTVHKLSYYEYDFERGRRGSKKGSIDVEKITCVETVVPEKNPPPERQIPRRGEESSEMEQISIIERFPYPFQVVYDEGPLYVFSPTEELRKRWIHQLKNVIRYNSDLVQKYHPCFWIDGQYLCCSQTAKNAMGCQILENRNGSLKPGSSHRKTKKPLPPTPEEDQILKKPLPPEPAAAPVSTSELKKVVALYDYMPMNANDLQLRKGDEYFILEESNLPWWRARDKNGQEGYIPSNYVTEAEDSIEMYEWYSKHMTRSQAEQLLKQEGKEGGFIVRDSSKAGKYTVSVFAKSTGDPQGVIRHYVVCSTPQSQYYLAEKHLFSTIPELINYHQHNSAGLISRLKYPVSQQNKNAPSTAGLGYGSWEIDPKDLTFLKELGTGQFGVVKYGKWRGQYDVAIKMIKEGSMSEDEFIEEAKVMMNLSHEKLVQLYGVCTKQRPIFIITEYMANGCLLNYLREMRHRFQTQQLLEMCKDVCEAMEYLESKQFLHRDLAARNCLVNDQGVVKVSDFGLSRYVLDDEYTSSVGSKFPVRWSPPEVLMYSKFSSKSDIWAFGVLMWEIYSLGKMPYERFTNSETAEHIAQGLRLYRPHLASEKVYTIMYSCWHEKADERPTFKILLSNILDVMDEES
Chain of FGFR3 (P22607 23-806): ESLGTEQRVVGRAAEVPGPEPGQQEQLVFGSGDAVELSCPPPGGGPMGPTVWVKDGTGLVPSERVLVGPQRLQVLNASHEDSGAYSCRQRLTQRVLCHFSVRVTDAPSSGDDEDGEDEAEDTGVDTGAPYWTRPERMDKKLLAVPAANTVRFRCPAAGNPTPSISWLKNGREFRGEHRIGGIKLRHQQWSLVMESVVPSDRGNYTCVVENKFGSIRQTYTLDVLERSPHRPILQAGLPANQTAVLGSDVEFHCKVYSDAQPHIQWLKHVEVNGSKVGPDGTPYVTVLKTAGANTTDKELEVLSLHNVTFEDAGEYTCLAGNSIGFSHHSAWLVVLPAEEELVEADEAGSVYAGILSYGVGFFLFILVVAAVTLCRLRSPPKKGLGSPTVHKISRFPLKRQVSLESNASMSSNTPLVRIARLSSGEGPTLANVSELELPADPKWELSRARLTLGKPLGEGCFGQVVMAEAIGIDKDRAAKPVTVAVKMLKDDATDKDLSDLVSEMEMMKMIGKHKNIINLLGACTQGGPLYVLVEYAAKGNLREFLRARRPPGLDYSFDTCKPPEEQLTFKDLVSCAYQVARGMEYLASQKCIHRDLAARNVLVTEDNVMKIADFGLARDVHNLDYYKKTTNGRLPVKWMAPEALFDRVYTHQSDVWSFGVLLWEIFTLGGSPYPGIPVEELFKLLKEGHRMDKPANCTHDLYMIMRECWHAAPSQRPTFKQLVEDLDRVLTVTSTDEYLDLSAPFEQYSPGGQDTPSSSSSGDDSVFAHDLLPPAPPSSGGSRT
Chain of JNK3 (P53779 whole entry): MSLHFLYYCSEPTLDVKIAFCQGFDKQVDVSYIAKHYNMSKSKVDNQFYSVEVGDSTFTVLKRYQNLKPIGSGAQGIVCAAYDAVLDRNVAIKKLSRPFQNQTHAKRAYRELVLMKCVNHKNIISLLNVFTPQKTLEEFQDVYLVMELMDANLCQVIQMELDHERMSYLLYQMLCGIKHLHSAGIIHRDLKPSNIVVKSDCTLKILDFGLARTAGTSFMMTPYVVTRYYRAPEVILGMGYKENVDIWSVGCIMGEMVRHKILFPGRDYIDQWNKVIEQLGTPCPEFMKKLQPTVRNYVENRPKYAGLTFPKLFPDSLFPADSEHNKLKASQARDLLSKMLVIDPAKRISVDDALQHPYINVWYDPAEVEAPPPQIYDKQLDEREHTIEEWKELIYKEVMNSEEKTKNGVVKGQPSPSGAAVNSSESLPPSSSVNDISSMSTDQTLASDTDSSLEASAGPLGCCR
Chain of LCK (P06239 whole entry): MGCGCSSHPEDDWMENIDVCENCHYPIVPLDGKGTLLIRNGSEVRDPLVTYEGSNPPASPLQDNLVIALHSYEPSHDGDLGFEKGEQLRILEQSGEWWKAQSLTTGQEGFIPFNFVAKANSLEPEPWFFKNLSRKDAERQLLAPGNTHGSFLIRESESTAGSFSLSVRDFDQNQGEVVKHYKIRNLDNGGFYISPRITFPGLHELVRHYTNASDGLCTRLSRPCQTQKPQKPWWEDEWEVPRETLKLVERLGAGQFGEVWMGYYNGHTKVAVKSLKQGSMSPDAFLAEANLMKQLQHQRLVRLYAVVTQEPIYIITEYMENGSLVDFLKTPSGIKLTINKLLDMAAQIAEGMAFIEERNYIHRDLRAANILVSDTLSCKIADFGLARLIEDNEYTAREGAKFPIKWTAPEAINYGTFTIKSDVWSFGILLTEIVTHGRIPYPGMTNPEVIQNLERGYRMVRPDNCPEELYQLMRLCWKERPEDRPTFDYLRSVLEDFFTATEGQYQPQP
Chain of TEK (Q02763 23-1124): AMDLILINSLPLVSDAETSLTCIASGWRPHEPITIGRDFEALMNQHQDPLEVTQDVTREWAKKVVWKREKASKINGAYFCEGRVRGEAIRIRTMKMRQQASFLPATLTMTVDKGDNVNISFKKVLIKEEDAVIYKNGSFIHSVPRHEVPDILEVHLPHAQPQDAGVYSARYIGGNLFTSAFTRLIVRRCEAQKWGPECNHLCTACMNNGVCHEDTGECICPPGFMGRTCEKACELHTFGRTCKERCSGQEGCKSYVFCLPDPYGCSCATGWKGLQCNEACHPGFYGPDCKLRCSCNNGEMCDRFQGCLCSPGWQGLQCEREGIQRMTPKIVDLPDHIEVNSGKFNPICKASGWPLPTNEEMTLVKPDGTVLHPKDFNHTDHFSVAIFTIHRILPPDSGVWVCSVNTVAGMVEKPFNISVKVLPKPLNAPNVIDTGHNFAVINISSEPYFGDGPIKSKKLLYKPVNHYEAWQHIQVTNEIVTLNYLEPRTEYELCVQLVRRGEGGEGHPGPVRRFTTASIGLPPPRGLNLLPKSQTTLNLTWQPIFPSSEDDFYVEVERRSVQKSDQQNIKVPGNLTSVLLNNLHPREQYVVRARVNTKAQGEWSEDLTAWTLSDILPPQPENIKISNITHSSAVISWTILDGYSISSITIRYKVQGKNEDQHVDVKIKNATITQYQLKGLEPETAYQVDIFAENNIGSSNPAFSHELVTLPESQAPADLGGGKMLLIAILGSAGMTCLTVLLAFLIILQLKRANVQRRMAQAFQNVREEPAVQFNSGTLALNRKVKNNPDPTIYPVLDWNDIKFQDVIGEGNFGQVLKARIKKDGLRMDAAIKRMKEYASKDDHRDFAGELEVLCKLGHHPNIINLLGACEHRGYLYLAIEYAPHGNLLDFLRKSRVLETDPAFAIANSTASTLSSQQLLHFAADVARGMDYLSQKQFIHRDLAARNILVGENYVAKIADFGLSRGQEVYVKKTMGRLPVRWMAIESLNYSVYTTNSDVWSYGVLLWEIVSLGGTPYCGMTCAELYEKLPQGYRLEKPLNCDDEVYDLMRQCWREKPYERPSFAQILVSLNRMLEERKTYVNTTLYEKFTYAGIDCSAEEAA
Chain of MAP3K9 (P80192 whole entry): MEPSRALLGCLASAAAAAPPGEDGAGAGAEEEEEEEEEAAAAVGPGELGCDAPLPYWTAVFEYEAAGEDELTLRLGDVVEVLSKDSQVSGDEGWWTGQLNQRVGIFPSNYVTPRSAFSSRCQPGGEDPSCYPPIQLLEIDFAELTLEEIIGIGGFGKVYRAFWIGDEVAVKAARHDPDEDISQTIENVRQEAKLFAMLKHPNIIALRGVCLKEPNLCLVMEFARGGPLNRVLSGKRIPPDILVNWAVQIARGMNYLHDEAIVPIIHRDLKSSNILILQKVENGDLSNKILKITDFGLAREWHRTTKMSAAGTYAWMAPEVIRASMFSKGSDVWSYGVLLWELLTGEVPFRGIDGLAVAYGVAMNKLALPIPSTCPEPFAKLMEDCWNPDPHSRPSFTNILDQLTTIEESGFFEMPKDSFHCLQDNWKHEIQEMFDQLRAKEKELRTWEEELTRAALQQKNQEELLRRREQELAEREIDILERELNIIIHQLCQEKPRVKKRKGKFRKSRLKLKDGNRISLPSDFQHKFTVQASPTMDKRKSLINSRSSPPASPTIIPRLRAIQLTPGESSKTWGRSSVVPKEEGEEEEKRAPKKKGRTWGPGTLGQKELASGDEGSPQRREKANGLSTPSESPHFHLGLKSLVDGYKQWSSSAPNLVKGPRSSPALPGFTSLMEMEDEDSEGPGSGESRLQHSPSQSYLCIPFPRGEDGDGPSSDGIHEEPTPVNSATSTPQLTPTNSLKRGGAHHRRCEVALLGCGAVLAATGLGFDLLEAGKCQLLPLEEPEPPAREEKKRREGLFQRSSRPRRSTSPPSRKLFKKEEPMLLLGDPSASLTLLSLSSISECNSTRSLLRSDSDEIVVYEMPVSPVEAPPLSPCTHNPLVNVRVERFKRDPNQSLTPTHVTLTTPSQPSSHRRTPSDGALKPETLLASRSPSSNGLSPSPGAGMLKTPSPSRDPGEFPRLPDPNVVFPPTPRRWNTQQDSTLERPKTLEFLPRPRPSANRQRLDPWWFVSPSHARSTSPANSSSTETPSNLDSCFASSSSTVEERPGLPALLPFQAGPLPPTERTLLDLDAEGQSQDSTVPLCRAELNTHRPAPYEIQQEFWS
Chain of MAPK14 (Q16539 whole entry): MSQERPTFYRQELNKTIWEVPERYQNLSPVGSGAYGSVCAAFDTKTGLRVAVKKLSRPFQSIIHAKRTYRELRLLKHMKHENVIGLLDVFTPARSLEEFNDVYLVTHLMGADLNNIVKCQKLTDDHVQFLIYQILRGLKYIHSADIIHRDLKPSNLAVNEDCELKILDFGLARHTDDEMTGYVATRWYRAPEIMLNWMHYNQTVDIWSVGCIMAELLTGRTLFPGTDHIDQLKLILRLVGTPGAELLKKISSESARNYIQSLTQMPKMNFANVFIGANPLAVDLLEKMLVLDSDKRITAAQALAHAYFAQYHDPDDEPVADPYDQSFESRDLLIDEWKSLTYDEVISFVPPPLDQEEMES

## CN1C(=O)[C@@H](N2CCc3c(nn(Cc4ccccc4)c3C(N)=O)C2=O)COc2cc(Cl)ccc21 [Compound 10, (S)-2-benzyl-6-(8-chloro-5-methyl-4-oxo-2,3,4,5-tetrahydrobenzo[b][1,4]oxazepin-3-yl)-7-oxo-4,5,6,7-tetrahydro-2H-pyrazolo[3,4-c]pyridine-3-carboxamide]
TBK1
  receptor occupancy at 1 µM: 2.77%
NEK11
  receptor occupancy at 1 µM: 10.1%
LCK
  receptor occupancy at 1 µM: -0.25%
STK35
  receptor occupancy at 1 µM: 1.56%
IRAK4
  receptor occupancy at 1 µM: -8.73%
TXK
  receptor occupancy at 1 µM: 4.81%
JNK3
  receptor occupancy at 1 µM: 3.53%
TYRO3
  receptor occupancy at 1 µM: -9.33%
ERN2
  receptor occupancy at 1 µM: -5.4%
MAP4K2
  receptor occupancy at 1 µM: -0.43%
CDKL3
  receptor occupancy at 1 µM: 4.18%
SRMS
  receptor occupancy at 1 µM: 10.1%
BTK
  receptor occupancy at 1 µM: -8.22%
TEK
  receptor occupancy at 1 µM: 9.13%
MAPK14
  receptor occupancy at 1 µM: 4.38%
CDK3
  receptor occupancy at 1 µM: -5.32%
MAP3K21
  receptor occupancy at 1 µM: -2.72%
MYLK2
  receptor occupancy at 1 µM: 4.26%
BRSK2
  receptor occupancy at 1 µM: 2.53%
SLK
  receptor occupancy at 1 µM: 19%
CDKL2
  receptor occupancy at 1 µM: -3.58%
FGFR2
  receptor occupancy at 1 µM: -6.21%
FYN
  receptor occupancy at 1 µM: 5.88%
LATS1
  receptor occupancy at 1 µM: -16%
FGFR3
  receptor occupancy at 1 µM: 22.5%
MAP3K9
  receptor occupancy at 1 µM: 8.3%
RPS6KA1
  receptor occupancy at 1 µM: 5.2%
